Values quoted from earlier work as cited in the PKSmart pharmacokinetics tables (Seal et al. 2025).

Assay: Lombardo, Berellini, Obach 2018, Drug Metab Dispos 46:1466, doi 10.1124/dmd.118.082966
Conditions: human; for MRT / Vd / clearance / half-life: in vivo, iv; for fraction unbound: plasma

## COC(=O)C1=C(C)NC(C)=C(C(=O)OCCCN2CCC(c3ccccc3)(c3ccccc3)CC2)[C@@H]1c1cccc([N+](=O)[O-])c1
  MRT: 15 h
  Vd: 8.4 L/kg
  clearance: 9.3 mL/min/kg
  half-life: 22 h

## C=Cc1c(C)c2[nH]c1=Cc1[nH]c(c(=CCC(=O)O)c1C)=Cc1[nH]c(c(C)c1CCC(=O)OC)C=C1NC(=C3C=CC(C(=O)OC)=C(C(=O)OC)[C@@]13C)C=2
  MRT: 6.6 h
  Vd: 0.63 L/kg
  clearance: 1.6 mL/min/kg
  half-life: 5.6 h

## COc1ccc(-c2nc3cc(C4=NNC(=O)CC4C)ccc3[nH]2)cc1 (centres undefined)
  MRT: 2.2 h
  Vd: 2 L/kg
  half-life: 1.8 h
  fraction unbound: 0.024

## NC(=S)NN=Cc1ncccc1N
  MRT: 2.6 h
  Vd: 0.41 L/kg
  clearance: 2.65 mL/min/kg
  half-life: 1.9 h

## CN(C)C1CCN(C(=O)c2ccc(NC(=O)Nc3ccc(-c4nc(N5CCOCC5)nc(N5CCOCC5)n4)cc3)cc2)CC1
  MRT: 17.6 h
  Vd: 2.39 L/kg
  clearance: 2.25 mL/min/kg
  half-life: 35.8 h

## Cc1cccc(N2CC(CO)OC2=O)c1 (centres undefined)
  MRT: 2.3 h
  Vd: 1.5 L/kg
  clearance: 11 mL/min/kg
  half-life: 1.6 h
  fraction unbound: 0.49

## Cn1nnc(-c2ccc(-c3ccc(N4C[C@H](CO)OC4=O)cc3F)cn2)n1
  MRT: 12.6 h
  Vd: 0.91 L/kg
  clearance: 1.19 mL/min/kg
  half-life: 10.2 h
  fraction unbound: 0.11

## CC(C)[N@+]1(C)[C@H]2CC[C@H]1C[C@H](OC(=O)C(c1ccccc1)C1CCCC1)C2 (some centres undefined)
  MRT: 2.48 h
  Vd: 1.25 L/kg
  clearance: 8.41 mL/min/kg
  half-life: 3.3 h

## C=CCNc1nc(NCC=C)nc(N2CCN(C(c3ccc(F)cc3)c3ccc(F)cc3)CC2)n1
  MRT: 607 h
  Vd: 35.4 L/kg
  clearance: 0.97 mL/min/kg
  half-life: 1340 h
  fraction unbound: 0.01

## COC1C(=O)C(C)C[C@H](C)/C=C/C=C/C=C(\C)[C@@H](OC)C[C@@H]2CC[C@@H](C)[C@@](O)(O2)C(=O)C(=O)N2CCCCC2C(=O)O[C@H]([C@H](C)C[C@@H]2CC[C@@H](OC(=O)C(C)(CO)CO)[C@H](OC)C2)CC(=O)C(C)=CC(C)[C@H]1O (some centres undefined)
  MRT: 10 h
  Vd: 3 L/kg
  clearance: 7.7 mL/min/kg
  half-life: 18 h

## CN(C)[C@@H](c1cccc(O)c1)[C@H]1CCCC[C@H]1O
  clearance: 2.2 mL/min/kg
  half-life: 3.85 h

## CCCN(CCC)CCc1cccc2[nH]c(O)cc12
  MRT: 4.3 h
  Vd: 7.7 L/kg
  clearance: 30 mL/min/kg
  half-life: 6 h
  fraction unbound: 0.6

## CC(C)NC[C@H](O)COc1ccc(O)cc1
  MRT: 3.23 h
  Vd: 4.28 L/kg
  clearance: 22.1 mL/min/kg
  half-life: 2.85 h

## COc1cc([S+](C)O)ccc1-c1nc2cnccc2[n-]1 (centres undefined)
  MRT: 1.3 h
  Vd: 1.67 L/kg
  clearance: 20.7 mL/min/kg
  half-life: 1.2 h
  fraction unbound: 0.48

## FC(F)(F)C(F)(F)C(F)(F)F
  MRT: 0.05 h
  Vd: 1.6 L/kg
  clearance: 591 mL/min/kg
  half-life: 0.02 h

## C[C@@H]1[C@H](O)[C@@H](C)C=CC=CC=CC=CC=CC=CC=C[C@H](O[C@H]2O[C@H](C)[C@@H](O)[C@H](N)[C@@H]2O)C[C@@H]2O[C@@](O)(C[C@@H](O)C[C@@H](O)[C@H](O)CC[C@@H](O)C[C@@H](O)CC(=O)O[C@H]1C)C[C@H](O)C2C(=O)O (some centres undefined)
  MRT: 61 h
  Vd: 0.62 L/kg
  clearance: 0.17 mL/min/kg
  half-life: 40 h
  fraction unbound: 0.03

## O=[N+]([O-])O[C@H]1CO[C@H]2[C@@H]1OC[C@H]2O
  MRT: 2.3 h
  Vd: 0.86 L/kg
  clearance: 6.2 mL/min/kg
  half-life: 1.9 h

## CC(C)(F)CC(N[C@@H](c1ccc(-c2ccc(S(C)(=O)=O)cc2)cc1)C(F)(F)F)C(=O)NC1(C#N)CC1 (some centres undefined)
  MRT: 147 h
  Vd: 1.63 L/kg
  clearance: 0.19 mL/min/kg
  half-life: 108 h

## Cc1cccc(Cl)c1C(=O)NC(Cc1ccc(NC(=O)c2c(Cl)cncc2Cl)cc1)C(=O)O (centres undefined)
  MRT: 1.3 h
  Vd: 0.3 L/kg
  clearance: 3.7 mL/min/kg
  half-life: 3.3 h
  fraction unbound: 0.1

## C[C@H](Cc1cc2c(c(C(N)=O)c1)N(CCCO)CC2)NCCOc1ccccc1OCC(F)(F)F
  clearance: 2.8 mL/min/kg
  half-life: 3.6 h
  fraction unbound: 0.05

## CCN(CC)CCNC(=O)c1cc(Br)c(N)cc1OC
  MRT: 4 h
  Vd: 3.1 L/kg
  clearance: 13 mL/min/kg
  half-life: 2.9 h
  fraction unbound: 0.6

## CCOc1cc(Cc2cnc(N)nc2N)cc(OCC)c1-n1cccc1
  Vd: 2.5 L/kg
  clearance: 3.5 mL/min/kg
  half-life: 9.4 h
  fraction unbound: 0.12

## CCOc1cc(CC(=O)N[C@@H](CC(C)C)c2ccccc2N2CCCCC2)ccc1C(=O)O
  MRT: 1.88 h
  Vd: 0.315 L/kg
  clearance: 4.92 mL/min/kg
  half-life: 1.69 h

## CN(C)CCO[C@]1(c2ccccc2)C[C@H]2CC[C@]1(C)C2(C)C
  MRT: 26.6 h
  Vd: 7.7 L/kg
  clearance: 4.88 mL/min/kg
  half-life: 26.6 h
  fraction unbound: 0.05

## CCN(CC)CC(=O)Nc1c(C)cccc1C
  MRT: 1.9 h

## CCOC(=O)Nc1ccc(NCc2ccc(F)cc2)nc1N
  MRT: 11 h
  Vd: 1.1 L/kg
  clearance: 1.6 mL/min/kg
  half-life: 8.5 h

## CN(C)CCCN1c2ccccc2CCc2cc(O)ccc21
  MRT: 12 h
  Vd: 6.6 L/kg
  clearance: 9.2 mL/min/kg
  half-life: 10 h
  fraction unbound: 0.36

## COc1ccc(C2(C#N)CCC(C(=O)O)CC2)cc1OC1CCCC1 (centres undefined)
  MRT: 8.5 h
  Vd: 0.23 L/kg
  clearance: 0.5 mL/min/kg
  half-life: 7.9 h

## O=c1ccc2ccc(OCCCCN3CCN(c4cccc5sccc45)CC3)cc2[nH]1
  MRT: 71 h
  Vd: 1.46 L/kg
  clearance: 0.34 mL/min/kg
  half-life: 54.4 h
  fraction unbound: 0.002

## COc1ccc2[n-]c([S+](O)Cc3ncc(C)c(OC)c3C)nc2c1 (centres undefined)
  MRT: 0.48 h
  Vd: 0.24 L/kg
  clearance: 8.4 mL/min/kg
  half-life: 0.58 h

## CCCCCCCCc1ccc(CCC(N)(CO)CO)cc1
  MRT: 189 h
  Vd: 17.3 L/kg
  clearance: 1.53 mL/min/kg
  half-life: 144 h
  fraction unbound: 0.002

## Cc1cc(O)c2c(=O)c3c(O)cc(O)c4c5c(O)cc(O)c6c(=O)c7c(O)cc(C)c8c1c2c(c34)c(c78)c65
  MRT: 32 h
  Vd: 0.25 L/kg
  clearance: 0.13 mL/min/kg
  half-life: 42 h
